Results: ChEMBL document CHEMBL1133265 (Bioorg Med Chem Lett, 2000)

Legend:
[1] = biological target: Norepinephrine transporter (Rattus norvegicus, UniProt Q9WTR4); assay: Compound has been evaluated for its affinity towards Norepinephrine transporter by displacing the radio isotope [3H]nisoxetine from rat forebrain
[2] = biological target: Sodium-dependent dopamine transporter (Rattus norvegicus, UniProt P23977); assay: Displacement of [3H]GBR-12935 from rat forebrain Dopamine transporter
[3] = biological target: Sodium-dependent serotonin transporter (Rattus norvegicus, UniProt P31652); assay: Affinity for Serotonin transporter by displacing [3H]paroxetine from rat forebrain
Sequence of Sodium-dependent serotonin transporter (P31652 whole entry): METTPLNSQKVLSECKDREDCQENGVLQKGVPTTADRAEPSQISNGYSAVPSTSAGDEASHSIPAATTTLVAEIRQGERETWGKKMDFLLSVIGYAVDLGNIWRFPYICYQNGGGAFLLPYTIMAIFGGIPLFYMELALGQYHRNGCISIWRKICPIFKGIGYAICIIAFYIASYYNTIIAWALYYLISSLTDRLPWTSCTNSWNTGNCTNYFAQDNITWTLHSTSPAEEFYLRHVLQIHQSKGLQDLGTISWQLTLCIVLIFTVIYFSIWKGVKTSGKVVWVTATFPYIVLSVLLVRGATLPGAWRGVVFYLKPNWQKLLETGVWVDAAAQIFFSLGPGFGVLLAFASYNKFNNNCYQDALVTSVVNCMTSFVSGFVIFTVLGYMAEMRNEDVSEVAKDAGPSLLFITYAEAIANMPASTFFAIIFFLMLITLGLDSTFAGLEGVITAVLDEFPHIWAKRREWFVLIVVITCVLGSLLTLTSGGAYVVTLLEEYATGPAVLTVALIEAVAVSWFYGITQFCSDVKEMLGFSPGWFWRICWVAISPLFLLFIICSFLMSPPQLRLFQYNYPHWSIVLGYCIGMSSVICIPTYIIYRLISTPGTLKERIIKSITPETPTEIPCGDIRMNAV

Sequence of Norepinephrine transporter (Q9WTR4 whole entry): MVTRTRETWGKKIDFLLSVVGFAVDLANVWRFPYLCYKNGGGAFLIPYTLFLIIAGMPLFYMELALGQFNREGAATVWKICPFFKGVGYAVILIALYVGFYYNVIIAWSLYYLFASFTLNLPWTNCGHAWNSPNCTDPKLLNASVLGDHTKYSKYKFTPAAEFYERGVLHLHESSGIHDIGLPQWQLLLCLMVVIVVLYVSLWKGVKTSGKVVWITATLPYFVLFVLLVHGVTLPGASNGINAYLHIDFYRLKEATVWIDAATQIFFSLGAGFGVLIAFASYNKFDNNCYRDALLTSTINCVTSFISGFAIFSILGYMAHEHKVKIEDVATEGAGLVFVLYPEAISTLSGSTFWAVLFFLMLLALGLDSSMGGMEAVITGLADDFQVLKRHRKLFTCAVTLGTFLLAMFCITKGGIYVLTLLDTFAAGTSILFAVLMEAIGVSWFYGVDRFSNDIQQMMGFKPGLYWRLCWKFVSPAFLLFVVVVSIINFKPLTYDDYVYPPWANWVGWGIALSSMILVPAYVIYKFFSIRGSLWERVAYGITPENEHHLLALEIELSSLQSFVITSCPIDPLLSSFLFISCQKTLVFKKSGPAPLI
Sequence of Sodium-dependent dopamine transporter (P23977 whole entry): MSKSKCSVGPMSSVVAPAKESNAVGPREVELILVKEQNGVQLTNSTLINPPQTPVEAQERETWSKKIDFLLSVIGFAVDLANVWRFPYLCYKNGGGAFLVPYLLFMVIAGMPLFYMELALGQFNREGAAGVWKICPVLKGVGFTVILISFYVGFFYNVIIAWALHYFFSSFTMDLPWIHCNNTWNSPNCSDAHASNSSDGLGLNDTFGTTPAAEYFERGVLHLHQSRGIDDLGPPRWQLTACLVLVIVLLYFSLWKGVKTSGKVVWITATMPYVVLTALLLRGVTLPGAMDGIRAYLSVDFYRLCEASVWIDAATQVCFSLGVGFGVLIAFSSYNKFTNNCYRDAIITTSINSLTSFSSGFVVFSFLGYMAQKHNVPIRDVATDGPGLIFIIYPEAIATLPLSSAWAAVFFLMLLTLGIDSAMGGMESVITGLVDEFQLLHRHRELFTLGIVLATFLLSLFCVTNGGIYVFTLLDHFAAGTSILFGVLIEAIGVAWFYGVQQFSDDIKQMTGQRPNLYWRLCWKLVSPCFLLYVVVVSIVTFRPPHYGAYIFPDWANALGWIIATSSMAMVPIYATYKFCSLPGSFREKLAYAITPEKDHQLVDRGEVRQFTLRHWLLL

| Structure (SMILES) | Ki [1] [µM] | Ki [2] [µM] | Ki [3] [µM] |
| --- | --- | --- | --- |
| COC(=O)C1C(c2ccc(-c3ccc(OC)cc3)cc2)CC2CCC1N2C (centres undefined) | 0.352 | – | – |
| COC(=O)C1C(c2ccc(-c3ccccc3OC)cc2)CC2CCC1N2C (centres undefined) | 10 | – | – |
| COC(=O)C1C(c2ccc(-c3ccc([N+](=O)[O-])cc3)cc2)CC2CCC1N2C (centres undefined) | 0.37 | – | – |
| COC(=O)C1C(c2ccc(-c3cccc([N+](=O)[O-])c3)cc2)CC2CCC1N2C (centres undefined) | 0.963 | – | – |
| COC(=O)[C@@H]1C2CC[C@H](C[C@@H]1c1ccc(I)cc1)N2C | 0.0028 | 0.00096 | 0.00046 |
| COC(=O)C1C(c2ccc(-c3ccccc3[N+](=O)[O-])cc2)CC2CCC1N2C (centres undefined) | > 3 | > 3 | > 3 |
| COC(=O)C1C(c2ccc(-c3ccccc3C(C)=O)cc2)CC2CCC1N2C (centres undefined) | > 20 | – | – |
| COC(=O)C1C(c2ccc(-c3ccc(C(C)=O)cc3)cc2)CC2CCC1N2C (centres undefined) | 0.754 | – | – |
| COC(=O)C1C(c2ccc(-c3cccc(OC)c3)cc2)CC2CCC1N2C (centres undefined) | > 3 | – | – |
| COC(=O)C1C(c2ccc(-c3cccc(C(C)=O)c3)cc2)CC2CCC1N2C (centres undefined) | > 50 | – | – |
